For data set [1], the target named is Adenylate cyclase type 10 (Homo sapiens, UniProt Q96PN6).
Description: Inhibition of human soluble adenylyl cyclase assessed as reduction in cAMP levels in the presence of alpha-32p labeled ATP by biochemical assay
A short description of data set [2]: Octanol-water partition coefficient, logD of the compound at pH 7.4 by HPLC analysis. Format: physicochemical.
The nature of data set [3]: Permeability of the compound in PRISMA HT buffer at pH 7.4 at 10 umol/L incubated for 3 hrs bt PAMPA based LC/MS/MS analysis. The class given is ADME. The note with it: dose 10 µmol/L, read-out: permeability. For orientation: In PAMPA a lipid-coated filter parts donor from acceptor wells.
Data set [4] is described as follows: Kinetic solubility of compound by UV- absorbance analysis.
Data set [5] in a line: Mean residence time in CD1 mouse at 20 mg/kg, ip measured up to 24 hrs. The note with it: in vivo. Format: ADME, organism-based.
A short description of data set [6]: AUC in CD1 mouse at 20 mg/kg, ip measured up to 24 hrs. The class given is ADME, organism-based. Set-up: route intraperitoneal, dose 20 mg/kg, time <=24. The note with it: in vivo.
The nature of data set [7]: AUC in CD1 mouse at 20 mg/kg, po measured up to 24 hrs. Format: ADME, organism-based. Set-up: route oral, dose 20 mg/kg, time <=24. The note with it: in vivo.
Data set [8] in a line: Bioavailability in mouse. Format: ADME, organism-based. Conditions: in vivo, dose 20 mg/kg.
Data set [9] can be described thus: Mean residence time in CD1 mouse at 20 mg/kg, po measured up to 24 hrs. The note with it: in vivo. The class given is ADME, organism-based.
Data set [10] can be described thus: Cmax in CD1 mouse at 20 mg/kg, po measured up to 24 hrs. Format: ADME, organism-based. Set-up: route oral, dose 20 mg/kg, time <=24. Conditions: in vivo.
Data set [11] can be described thus: Cmax in CD1 mouse at 20 mg/kg, ip measured up to 24 hrs. Format: ADME, organism-based. Also on record: route intraperitoneal, dose 20 mg/kg, time <=24. Conditions: in vivo.
The nature of data set [12]: Clearance in mouse liver microsomes. The class given is ADME, Microsome. The note with it: read-out: CLH.
Data set [13] can be described thus: Clearance in human liver microsomes. Format: ADME, Microsome. The note with it: read-out: CLH. In general terms: Liver microsomes are a subcellular fraction often used to study metabolism.
Data set [14] is described as follows: Oral bioavailability in mouse. The note with it: in vivo. Format: ADME, organism-based.

Consider ten molecules from ChEMBL document CHEMBL4837243, “Discovery of TDI-10229: A Potent and Orally Bioavailable Inhibitor of Soluble Adenylyl Cyclase (sAC, ADCY10)” (ACS Med Chem Lett, 2021).

In brackets after ≈: the same amount, converted by molar mass.

Chain of Adenylate cyclase type 10 (Q96PN6 whole entry): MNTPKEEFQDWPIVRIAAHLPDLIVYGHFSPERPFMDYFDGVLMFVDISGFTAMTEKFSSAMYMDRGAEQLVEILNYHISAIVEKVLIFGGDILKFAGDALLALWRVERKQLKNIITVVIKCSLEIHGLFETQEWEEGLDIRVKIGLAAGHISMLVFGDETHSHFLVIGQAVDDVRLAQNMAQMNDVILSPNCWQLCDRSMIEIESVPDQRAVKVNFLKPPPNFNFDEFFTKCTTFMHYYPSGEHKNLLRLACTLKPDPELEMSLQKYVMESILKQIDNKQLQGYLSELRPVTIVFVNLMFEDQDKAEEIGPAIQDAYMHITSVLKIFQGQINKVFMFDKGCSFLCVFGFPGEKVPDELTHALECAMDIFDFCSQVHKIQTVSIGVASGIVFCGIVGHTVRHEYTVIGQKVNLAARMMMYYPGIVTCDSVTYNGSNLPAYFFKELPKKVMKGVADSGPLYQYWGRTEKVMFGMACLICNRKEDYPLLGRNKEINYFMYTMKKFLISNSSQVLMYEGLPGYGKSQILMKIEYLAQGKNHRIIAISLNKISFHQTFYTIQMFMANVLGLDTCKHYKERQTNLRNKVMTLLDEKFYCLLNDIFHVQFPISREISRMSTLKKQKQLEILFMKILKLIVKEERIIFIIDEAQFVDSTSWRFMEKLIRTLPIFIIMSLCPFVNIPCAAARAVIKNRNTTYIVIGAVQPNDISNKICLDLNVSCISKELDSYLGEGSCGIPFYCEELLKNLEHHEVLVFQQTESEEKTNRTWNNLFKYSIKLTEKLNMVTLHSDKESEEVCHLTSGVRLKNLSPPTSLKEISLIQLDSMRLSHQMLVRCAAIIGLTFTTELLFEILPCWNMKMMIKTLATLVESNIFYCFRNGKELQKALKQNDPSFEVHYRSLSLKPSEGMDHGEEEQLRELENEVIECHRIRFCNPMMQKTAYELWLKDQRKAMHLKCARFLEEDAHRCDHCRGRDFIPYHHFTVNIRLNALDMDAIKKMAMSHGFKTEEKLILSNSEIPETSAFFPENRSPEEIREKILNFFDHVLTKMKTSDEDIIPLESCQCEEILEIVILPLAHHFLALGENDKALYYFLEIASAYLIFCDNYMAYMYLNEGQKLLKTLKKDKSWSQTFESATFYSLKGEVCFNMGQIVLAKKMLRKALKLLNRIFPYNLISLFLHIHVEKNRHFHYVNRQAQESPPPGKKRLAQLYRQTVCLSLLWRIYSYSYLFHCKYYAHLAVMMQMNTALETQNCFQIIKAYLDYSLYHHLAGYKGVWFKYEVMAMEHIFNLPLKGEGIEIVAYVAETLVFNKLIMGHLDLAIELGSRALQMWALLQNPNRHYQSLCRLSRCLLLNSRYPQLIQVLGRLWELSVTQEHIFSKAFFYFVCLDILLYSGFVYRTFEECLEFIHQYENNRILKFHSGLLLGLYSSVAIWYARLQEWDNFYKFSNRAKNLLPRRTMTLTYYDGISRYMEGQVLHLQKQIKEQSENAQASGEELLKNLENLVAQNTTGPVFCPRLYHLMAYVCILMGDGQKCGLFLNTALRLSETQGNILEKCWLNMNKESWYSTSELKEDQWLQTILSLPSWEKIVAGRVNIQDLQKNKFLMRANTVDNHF

For orientation: IC50 means the concentration needed to halve the response being measured. High values mean weaker potency in that assay, low ones greater potency in that assay. Turning to `Cc1cc(-c2nn(C)cc2Cc2cccs2)nc(N)n1`, the IC50 in data set [1] is more than 1 µM.
Broadly, the logD is the decadic logarithm of the distribution of all forms, ionised or not, between an organic phase and buffer at a given pH. Low values mean a more hydrophilic compound, high ones a more lipophilic compound. The term solubility (kinetic) denotes the concentration staying in solution when a stock, usually in DMSO, is diluted into the medium. In [2], `Cc1c(Cc2cccs2)c(-c2cc(Cl)nc(N)n2)nn1C` gave a logD of 2.7. In addition, in [3], the Papp at 3 h, 10 µM is 28 ×10⁻⁶ cm/s. Moreover, the kinetic solubility in data set [4] was 0.38 µg/mL (≈ 1.19 µM).
As for `Cn1cc(Cc2cccs2)c(-c2cc(Cl)nc(N)n2)n1`, the log distribution coefficient (logD) in data set [2] was determined as 2.5. Besides, the Papp at 3 h, 10 µM in data set [3] was 25.8 ×10⁻⁶ cm/s. Also, in data set [4], the solubility (kinetic) amounted to 6.3 µg/mL (≈ 20.6 µM).
In [1], `Cc1c(Cc2ccnn2C)c(-c2cc(Cl)nc(N)n2)nn1C` displayed a half-inhibitory concentration (IC50) of more than 10 µM.
On to `CN(C)Cc1c(Cc2ccccc2)c(-c2cc(Cl)nc(N)n2)nn1C`, for which the 50% inhibitory concentration (IC50) in [1] was more than 10 µM.
The term MRT denotes a mean duration of stay, worked out from the concentration-time curve. For orientation: AUC means the area under the concentration-time curve, a measure of exposure. Read a high AUC as high exposure. By bioavailability is commonly meant dose-corrected exposure relative to a reference, in per cent. The low end stands for little systemic uptake, the high end for much systemic uptake. As a reminder, the Cmax is the peak of the concentration-time curve. For `Cc1c(Cc2ccccc2)c(-c2cc(Cl)nc(N)n2)nn1C`, the logD in [2] amounted to 2.9. Besides, in data set [3], the Papp at 3 h, 10 µM turned out to be 27.4 ×10⁻⁶ cm/s. For the same molecule, the MRT in data set [5] is 2.82 h; in data set [9] it was 3.95 h. Besides, the AUC at 24 h in data set [6] turned out to be 72 µM·h; in [7] it was 94 µM·h. Also, in data set [4], the kinetic solubility turned out to be 1.3 µg/mL (≈ 4.14 µM). This molecule also came in with a bioavailability in [8] of 59%. Further, the Cmax in data set [10] was determined as 15.5 µM; in [11], 45 µM.
In [1], `Cc1ccc(Cc2cn(C)nc2-c2cc(Cl)nc(N)n2)s1` came in with an IC50 of more than 1 µM.
Still for that read-out and setting: to `CNC(=O)c1c(Cc2ccccc2)c(-c2cc(Cl)nc(N)n2)nn1C` belongs more than 10 µM.
In data set [2], `Cn1cc(Cc2cccc(F)c2)c(-c2cc(Cl)nc(N)n2)n1` returned a logD of 2.8. The Papp at 3 h, 10 µM in data set [3] stood at 25.7 ×10⁻⁶ cm/s. The molecule further displayed a solubility (kinetic) in [4] of 7.5 µg/mL (≈ 23.6 µM).
With `Nc1nc(Cl)cc(N(Cc2cccs2)C2CC2)n1`, the microsomal CLint in [12] is more than 768 µL/min/mg; in [13], 360 µL/min/mg. In data set [14], this molecule registered a bioavailability of less than 5%.
